{"source": "patent US20210137997A1", "about": "(priority 2016, published 2021)", "key": {"P. acnes": {"tested_on": "P. acnes", "conditions": "0.1 mg/mL LA (range 0.1 to 1.0 mg/mL assessed)", "text": "P. acnes strains and cultures. […] Four RT4 and RT5 P. acnes strains, HL053PA1, HL045PA1, HL043PA1, and HL043PA2, were selected to represent type IA-2 strains, which were associated with the disease based on a 16S metagenomic study (J Invest Dermatol 133:2152-2160 (2013)). […] Three RT2 and RT6 strains, HL001PA1, HL103PA1, and HL042PA3, were selected to represent type II strains that were associated with healthy skin. To confirm the findings, an additional three type II strains, HL110PA3, HL106PA1, and HL050PA2, were also tested. […] For each experiment, 5 mL of reinforced clostridial broth was inoculated with 5×10^5 P. acnes cells per mL of culture. Cultures were grown to stationary phase anaerobically at 37° C. in a light-protected box. Cultures were supplemented on day 0 with vitamin B12 (10 μg/mL), 5-ALA (0.1 mg/mL), and/or LA (0.1 mg/mL). As controls, P. acnes strains were also cultured without supplementation. Three to five independent experiments with at least three replicates per experiment were performed for each strain, except strains HL110PA3, HL106PA1, and HL050PA2, which were tested in only one experiment with three replicates."}, "P. acnes strains": {"tested_on": "P. acnes strains", "format": "cell-based, Propionibacterium acnes", "quoted_text": "Common to most of the RT4 and RT5 strains, these strains harbor mutations in their 16S and 23S rRNA genes, which confer antibiotic resistance. […] To confirm the findings, an additional three type II strains, HL110PA3, HL106PA1, and HL050PA2, were also tested. […] For each experiment, 5 mL of reinforced clostridial broth was inoculated with 5×10^5 P. acnes cells per mL of culture. Cultures were grown to stationary phase anaerobically at 37° C. in a light-protected box. Cultures were supplemented on day 0 with vitamin B12 (10 μg/mL), 5-ALA (0.1 mg/mL), and/or LA (0.1 mg/mL). As controls, P. acnes strains were also cultured without supplementation. Three to five independent experiments with at least three replicates per experiment were performed for each strain, except strains HL110PA3, HL106PA1, and HL050PA2, which were tested in only one experiment with three replicates.\nExtraction, identification, and quantification of extracellular porphyrins. For each strain, porphyrins were extracted using the method described by Kang et al. (Sci Transl Med 7:293ra103 (2015)). Briefly, 500 μL of bacterial culture was extracted in ethyl acetate and acetic acid (4:1, v/v), and solubilized in 1.5M HCl. The absorbance at 405 nm was measured from 200 μL of the soluble phase using a Tecan Genios Spectrophotometer M1000 (Tecan US Inc, Morrisville, N.C.). The standard curve to convert absorbance to concentration was generated using coproporphyrin III standards of known concentration (C654-3, Frontier Sci). Porphyrin levels were measured in P. acnes strain KPA171202 using the quantification method described by Wollenberg et al. (MBio 5:e01286-01214 (2014)). […] Porphyrins were extracted from cultures at stationary phase. […] Bacterial culture density was measured at OD595 for normalization of porphyrin levels. […]"}, "[1]": {"tested_on": "acne-associated type IA-2 P. acnes strains", "format": "cell-based, Propionibacterium acnes", "experimental": "(§1) P. acnes strains and cultures.\n(§2) Extraction, identification, and quantification of extracellular porphyrins. For each strain, porphyrins were extracted using the method described by Kang et al. (Sci Transl Med 7:293ra103 (2015)). Briefly, 500 μL of bacterial culture was extracted in ethyl acetate and acetic acid (4:1, v/v), and solubilized in 1.5M HCl. The absorbance at 405 nm was measured from 200 μL of the soluble phase using a Tecan Genios Spectrophotometer M1000 (Tecan US Inc, Morrisville, N.C.). The standard curve to convert absorbance to concentration was generated using coproporphyrin III standards of known concentration (C654-3, Frontier Sci). Porphyrin levels were measured in P. acnes strain KPA171202 using the quantification method described by Wollenberg et al. (MBio 5:e01286-01214 (2014)). […] Porphyrins were extracted from cultures at stationary phase. […] Bacterial culture density was measured at OD595 for normalization of porphyrin levels. For mass spectrometry experiments, extracted porphyrins were directly injected onto an Agilent 6460 Triple Quad LC/MS system and each strain's m/z in the negative ion mode was identified.\n(§3) Statistical analysis for porphyrin production comparisons. The average amount of porphyrins produced by each strain under each culture condition was calculated based on the data from at least three independent experiments, with at least three replicates for each. The porphyrin levels between strains, groups (acne-associated vs. health-associated), and culture conditions (with treatment vs. without treatment) were estimated in a linear mixed effect model, with random intercepts by trial to account for trial effects. P-values for specific comparisons among groups were corrected using Tukey's method. All statistical analysis was performed using R software (version 3.1.3).\n(§4) To investigate whether different P. acnes strains produce the same porphyrin species, the types of porphyrins secreted by multiple P. acnes strains where characterized using mass spectrometry. Four acne-associated type IA-2 strains, HL053PA1 (RT4), HL045PA1 (RT4), HL043PA1 (RT5), and HL043PA2 (RT5), and three health-associated type II strains, HL001PA1 (RT2), HL103PA1 (RT2), and HL042PA3 (RT6), were examined (Table 1). No difference in the porphyrin species produced by these P. acnes strains was observed. Coproporphyrin III was the dominant porphyrin isomer produced by all strains ([M+H]^+=655.3). Minimal amounts of coproporphyrin I were also detected. Porphyrin levels are measured with the following method. Bacterial cells are collected, and porphyrins are extracted. The concentration of porphyrins is measured spectrophotometrically and normalized to the optical density (also measured spectrophotometrically). Porphyrin levels are therefore measured per bacterial unit."}, "[2]": {"tested_on": "health-associated type II P. acnes strains", "assay": "Extracellular porphyrin production in culture, health-associated type II strains", "format": "cell-based, Propionibacterium acnes", "experimental": "as §1, §2, §3, §4"}, "[3]": {"tested_on": "cbiL (vitamin B12 biosynthesis gene) in HL025PA1", "assay": "cbiL gene expression by qRT-PCR, HL025PA1", "format": "cell-based, Propionibacterium acnes", "conditions": "10 μg/mL vitamin B12", "experimental": "(§5) RNA extraction and cDNA synthesis. For cbiL and deoR gene expression analysis, cells were lysed with bead beating. Total RNA was extracted using the standard phenol-chloroform method and purified using RNeasy kit (Qiagen). DNA was removed using the Turbo DNA-free kit (Life Technologies). RNA quality was assessed using gel electrophoresis. Single-stranded complementary DNA (cDNA) was synthesized using SuperScript III First-Strand Synthesis SuperMix (Life Technologies).\n(§6) Analysis of cbiL gene expression. qRT-PCR was performed using the LightCycler 480 High Resolution Melting Master Mix (Roche) on a LightCycler 480 (Roche) with the following primers: cbiL-forward, 5′-[…]-3′ (SEQ ID NO: 1), and cbiL-reverse, 5′-[…]-3′ (SEQ ID NO: 2). The following qRT-PCR protocol was used: initial denaturation at 95° C. for 5 min, followed by 50 cycles of 95° C. for 10 sec, 62° C. for 30 sec, and 72° C. for 30 sec. The fold change in cbiL gene expression between cultures with vitamin B12 supplementation and cultures without supplementation was calculated. The gene expression level of cbiL in each sample was normalized against the 16S rRNA transcript level. Melting curve analysis was performed using the Light Cycler 480 software Version 1.5 (Roche) to verify the specificity of the amplified products based on their melting temperatures. All reactions were run in triplicate."}, "[4]": {"tested_on": "cbiL (vitamin B12 biosynthesis gene) in acne-associated type IA-2 strains", "assay": "cbiL gene expression by qRT-PCR, type IA-2 strains", "format": "cell-based, Propionibacterium acnes", "conditions": "10 μg/mL vitamin B12 vs without, normalized to 16S rRNA", "experimental": "as §5, §6"}, "P. acnes strain HL025PA1": {"tested_on": "P. acnes strain HL025PA1", "assay": "Extracellular porphyrin production in culture, type I strain with deoR", "format": "cell-based, Propionibacterium acnes", "conditions": "10 μg/mL vitamin B12", "experimental": "as §1\nas §2, with “For mass spectrometry experiments, extracted porphyrins were directly injected onto an Agilent 6460 Triple Quad LC/MS system and each strain's m/z in the negative ion mode was identified.” left out\nStatistical analysis for porphyrin production comparisons. The average amount of porphyrins produced by each strain under each culture condition was calculated based on the data from at least three independent experiments, with at least three replicates for each. […]"}, "[5]": {"tested_on": "cbiL (vitamin B12 biosynthesis gene) in health-associated type II strains", "assay": "cbiL gene expression by qRT-PCR, type II strains", "format": "cell-based, Propionibacterium acnes", "conditions": "10 μg/mL vitamin B12 vs without, normalized to 16S rRNA", "experimental": "as §5, §6"}}, "note": "Read-outs that look alike come from different tables or passages of the source.", "data": [{"molecule": "CC(=O)CCC(=O)O", "note": "[LA, levulinic acid]", "values": [{"measurement": "effect on bacterial growth", "setting": "P. acnes", "result": "did not significantly affect the bacterial growth"}, {"measurement": "average reduction of porphyrin production compared to untreated cultures", "setting": "P. acnes strains", "result": 30, "unit": "%"}, {"measurement": "reduction of porphyrins by LA in combination with vitamin B12", "setting": "[1]", "result": "no significant reduction of porphyrins"}]}, {"molecule": "NCC(=O)CCC(=O)O", "note": "[5-ALA, 5-aminolevulinic acid]", "values": [{"measurement": "average fold increase in porphyrin production", "setting": "[2]; 0.1 mg/mL 5-ALA only vs untreated controls, P≤0.06 except HL001PA1", "result": 3.4, "unit": "fold"}, {"measurement": "average fold increase in porphyrin production", "setting": "[1]; 0.1 mg/mL 5-ALA only vs untreated controls, P<0.0001", "result": 2.2, "unit": "fold"}]}, {"molecule": "vitamin B12", "values": [{"measurement": "effect on vitamin B12 biosynthesis gene expression", "setting": "[3]", "result": "transcriptional repression"}, {"measurement": "average porphyrin level with vitamin B12 supplementation", "setting": "[2]; 10 μg/mL vitamin B12, 1.1 μM without, P≥0.77", "result": 1.1, "unit": "µM"}, {"measurement": "further enhancement of porphyrin production compared to substrate only", "setting": "[2]; 10 μg/mL vitamin B12 in combination with 0.1 mg/mL 5-ALA, P≥0.94", "result": "not in health-associated type II strains"}, {"measurement": "counteraction by vitamin B12 of the inhibition of porphyrin biosynthesis by LA", "setting": "[2]; 0.1 mg/mL LA with 10 μg/mL vitamin B12", "result": "not in health-associated type II strains"}, {"measurement": "effect of vitamin B12 on porphyrin production level", "setting": "[2]; strains HL110PA3, HL106PA1, HL050PA2, 10 μg/mL", "result": "not significantly affected"}, {"measurement": "response of porphyrin production to vitamin B12 supplementation", "setting": "P. acnes strains; type I strains, FIG. 12", "result": "increased porphyrin production"}, {"measurement": "response of porphyrin production to vitamin B12 supplementation", "setting": "P. acnes strains; type II and type III strains, data not shown", "result": "not observed"}, {"measurement": "average fold change of cbiL gene expression", "setting": "[4]", "result": 0.74, "unit": "fold"}, {"measurement": "effect of vitamin B12 on porphyrin production", "setting": "P. acnes strain HL025PA1", "result": "unaffected"}, {"measurement": "average fold change of cbiL gene expression", "setting": "[5]", "result": 0.24, "unit": "fold"}, {"measurement": "average porphyrin level with vitamin B12 supplementation", "setting": "[1]; 10 μg/mL vitamin B12, increasing from 6.5 μM without", "result": 9.2, "unit": "µM"}, {"measurement": "fold increase in porphyrin production compared to substrate only", "setting": "[1]; 10 μg/mL vitamin B12 in combination with 0.1 mg/mL 5-ALA", "result": 2.7, "unit": "fold"}]}]}
